Source: article PMC2667962 (Biochemistry, 2008)

Legend:
[1] = DSC of the phase transition of pure SOPC with peptide; details: cooling scans, SOPC without peptide 5 °C
[2] = Formation of anhydrous cholesterol crystals seen by DSC

| Substance | transition temperature of pure SOPC ([1]; 5 mol% peptide) [°C] | transition temperature of pure SOPC ([1]; 10 mol% peptide) [°C] | transition temperature of pure SOPC ([1]; 15 mol% peptide) [°C] | formation of anhydrous cholesterol crystals ([2]; any of the SOPC/cholesterol ratios) | formation of cholesterol crystals ([2]; 6/4 ratio of SOPC/cholesterol) | formation of cholesterol crystals ([2]; mixtures with 30% cholesterol) |
| --- | --- | --- | --- | --- | --- | --- |
| LWGIG | 4.7 | 4.7 | 4.5 | no formation of anhydrous cholesterol crystals | – | – |
| Ac-GWGIK-NH2 [GWGIK, N-acetyl-GWGIK-amide] | – | – | – | – | no formation of cholesterol crystals | small peak corresponding to cholesterol crystals |
